Data on three compounds can be found in patent US8168779B2, “Anhydrous crystalline β-maltose, its preparation and uses” (priority 2006, dated 2012).

The structures appear in SMILES notation.

For series [1] the following is noted: mercury filling method; for Intrusion volume: initial pressure 15 kPa; for Median pore diameter / Mode pore diameter: control values originate from space between crystal particles, not pores.
A short description of series [2]: Deionized water-solidifying test (base for solidifying moisture-containing compositions). It is filed as physicochemical. Conditions: 25° C.; for (Appearance) / Condition: after 20 hours from the dissolution; for Time of solidification completed / Time of solidification started: monitored for 2 hours. From the text: After completing the dissolution, each test solution was further stirred for four minutes and then the stirring was stopped. Successively, each test solution was left to stand and a solidification of the test solution by the crystallization of hydrous crystalline maltose was monitored macroscopically for two hours. In the cases of the solidified samples, the time of starting the crystallization and that of completing the solidification were checked. (However, the test solution dissolving 18.8 g of crystal was stopped stirring at three minutes after the dissolution because the crystallization of hydrous crystalline maltose was started immediately.) After monitoring macroscopically for two hours, each vessel containing any one of the sample solutions was closed and further left to stand for 18 hours. Then, the condition (appearance) of the test samples after 20 hours from the dissolution was monitored macroscopically and evaluated by the following three phases: (1) clear solution; (2) clouded solution; and (3) solidified. The samples prepared by using 10.0 g, 11.5 g, 13.3 g, or 18.8 g of the anhydrous crystalline α-maltose used in Example 2, as a substitute of the test samples, were treated by the same procedure as controls. The test was carried out in a room where a temperature was kept at 25° C. The results of each sample after 2 and 20 hours are shown in Table 5 and FIG. 13, and Table 6 and FIG. 14, respectively.

A short description of series [3]: Hygroscopicity test (moisture content under controlled relative humidity). It is filed as physicochemical. Conditions: 27° C. The method, then:
Moisture contents of the samples at respective periods were measured based on the change of weight from the start of the test. The moisture contents of the samples at the start of the test were measured by Karl Fischer's method.

Setting [4] is: 8.2 g dissolved in 10 g deionized water (45.0%).
[5] abbreviates: 8.2 g dissolved in 10 g deionized water (calc. conc. 45.0%).
Where [6] appears, read: 10.0 g dissolved in 10 g deionized water (50.0%).
Setting [7] is: 10.0 g dissolved in 10 g deionized water (calc. conc. 50.0%).
Where [8] appears, read: 11.5 g dissolved in 10 g deionized water (53.5%).
Where [9] appears, read: 11.5 g dissolved in 10 g deionized water (calc. conc. 53.5%).
Where [10] appears, read: 13.3 g dissolved in 10 g deionized water (calc. conc. 57.0%).
The mark [11] stands for this setting: 18.8 g dissolved in 10 g deionized water (calc. conc. 65.0%).

Consider `OC[C@H]1O[C@H](O[C@H]2[C@H](O)[C@@H](O)[C@H](O)O[C@@H]2CO)[C@H](O)[C@@H](O)[C@@H]1O` [Anhydrous crystalline β-maltose (Control 3)], for which, in series [1], the Intrusion volume result is recorded as “(No pore)”, the Median pore diameter was determined as 14.70 μm and the Mode pore diameter came to 25.70 μm.
As to `OC[C@H]1O[C@H](O[C@H]2[C@H](O)[C@@H](O)[C@H](O)O[C@@H]2CO)[C@H](O)[C@@H](O)[C@@H]1O` [Anhydrous crystalline β-maltose converted by the ethanol tre], the “(Appearance)” value is given as “(Clear solution)” in series [2] (setting [4]), “(Clear solution)” in series [2] (setting [6]) and “(Clouded solution)” in series [2] (setting [8]). In addition, the Condition entry in series [2] (setting [4]) is reported as “Not solidified”; in series [2] (setting [6]), “Not solidified”; in series [2] (setting [8]), “Not solidified”; in series [2] (13.3 g dissolved in 10 g deionized water (57.0%)) it was “Solidified”; in series [2] (18.8 g dissolved in 10 g deionized water (65.0%)), “Solidified”. In addition, the “Time of solidification completed” value in series [2] (setting [5]) was “Not solidified”; in series [2] (setting [7]), “Not solidified”; in series [2] (setting [9]) it was “Not solidified”; in series [2] (setting [10]), 8.0 min; in series [2] (setting [11]) it was 3.5 min. Besides, the “Time of solidification started” value in series [2] (setting [5]) is “Not solidified”; in series [2] (setting [7]), “Not solidified”; in series [2] (setting [9]), “Not solidified”; in series [2] (setting [10]) it was 6.0 min; in series [2] (setting [11]) it was 3.0 min. In addition, the Intrusion volume in series [1] was 1.05 mL/g. In addition, in series [1], the Median pore diameter is given as 1.26 μm. Besides, in series [1], the Mode pore diameter is on record as 1.44 μm.
For `OCC1OC(OC2C(CO)OC(O)C(O)C2O)C(O)C(O)C1O` (stereo not drawn) [HC β-Mal (Control 1), Hydrous crystalline β-maltose], the “Moisture content of samples” value was 5.24 %, w/w in series [3] (RH 47% (lithium nitrate), 0 hour (start, Karl Fischer)); 5.23 %, w/w in series [3] (RH 47% (lithium nitrate), 2 hours); 5.23 %, w/w in series [3] (RH 47% (lithium nitrate), 4 hours); 5.23 %, w/w in series [3] (RH 47% (lithium nitrate), 24 hours); 5.26 %, w/w in series [3] (RH 47% (lithium nitrate), 96 hours); 5.23 %, w/w in series [3] (RH 47% (lithium nitrate), 192 hours). For the same compound, the “Moisture content of samples” value in series [3] (RH 58% (sodium bromide), 0 hour (start, Karl Fischer)) was 5.24 %, w/w; in series [3] (RH 58% (sodium bromide), 2 hours) it was 5.22 %, w/w; in series [3] (RH 58% (sodium bromide), 4 hours), 5.25 %, w/w; in series [3] (RH 58% (sodium bromide), 6 hours), 5.26 %, w/w; in series [3] (RH 58% (sodium bromide), 8 hours), 5.25 %, w/w; in series [3] (RH 58% (sodium bromide), 24 hours), 5.25 %, w/w. For the same compound, the “Moisture content of samples” value in series [3] (RH 58% (sodium bromide), 96 hours) is recorded as 5.28 %, w/w; in series [3] (RH 58% (sodium bromide), 192 hours), 5.26 %, w/w; in series [3] (RH 75% (sodium chloride), 0 hour (start, Karl Fischer)) it was 5.24 %, w/w; in series [3] (RH 75% (sodium chloride), 2 hours), 5.21 %, w/w; in series [3] (RH 75% (sodium chloride), 4 hours), 5.25 %, w/w; in series [3] (RH 75% (sodium chloride), 6 hours), 5.25 %, w/w. The “Moisture content of samples” value is listed as 5.25 %, w/w in series [3] (RH 75% (sodium chloride), 8 hours); 5.25 %, w/w in series [3] (RH 75% (sodium chloride), 24 hours); 5.29 %, w/w in series [3] (RH 75% (sodium chloride), 96 hours); 5.23 %, w/w in series [3] (RH 75% (sodium chloride), 192 hours); 5.24 %, w/w in series [3] (RH 90% (barium chloride), 0 hour (start, Karl Fischer)); 5.26 %, w/w in series [3] (RH 90% (barium chloride), 2 hours). Further, the “Moisture content of samples” value in series [3] (RH 90% (barium chloride), 4 hours) was 5.27 %, w/w; in series [3] (RH 90% (barium chloride), 6 hours), 5.26 %, w/w; in series [3] (RH 90% (barium chloride), 8 hours) it was 5.26 %, w/w; in series [3] (RH 90% (barium chloride), 24 hours), 5.24 %, w/w; in series [3] (RH 90% (barium chloride), 96 hours), 5.61 %, w/w; in series [3] (RH 90% (barium chloride), 192 hours), 5.36 %, w/w.
